According to ChEMBL document CHEMBL5625239, “Synthesis of 1,3,5-triphenyl-1,2,4-triazole derivatives and their neuroprotection by anti-oxidative stress and anti-inflammation and protecting BBB” (Eur J Med Chem, 2023):
Active and inactive are the calls of the source. The calls are words filed in the database; no cut-off is given here.

How the values were obtained:
PC-12 [1] = assay: Protection against SNP-induced cell damage in rat PC-12 cells at 10 uM pretreated with compound for 2 hrs followed by SNP addition and measured after 24 hrs by MTT assay; type: functional, cell-based; settings: time 26.0 hrs
RAW264.7 [2] = assay: Anti-inflammatory activity in mouse RAW264.7 cells assessed as inhibition of LPS-induced NO production preincubated with compound for 1 hrs followed by LPS stimulation and measured after 24 hrs; type: functional, cell-based; settings: time 25.0 hrs
PC-12 [3] = assay: Neuroprotective activity against SNP-induced cell damage in rat PC-12 cells pretreated with compound for 2 hrs followed by SNP addition and measured after 24 hrs by MTT assay; type: functional, cell-based; settings: dose 2.5-100 µM, time 26.0 hrs
[4] = target: T1, Prostaglandin G/H synthase 1 (Ovis aries, UniProt P05979); assay: Inhibition of ovine COX-1 using arachidonic acid as substrate preincubated with compound for 5 mins followed by substrate addition and measured after 2 mins by enzyme immunoassay
T1 sequence (P05979 whole entry): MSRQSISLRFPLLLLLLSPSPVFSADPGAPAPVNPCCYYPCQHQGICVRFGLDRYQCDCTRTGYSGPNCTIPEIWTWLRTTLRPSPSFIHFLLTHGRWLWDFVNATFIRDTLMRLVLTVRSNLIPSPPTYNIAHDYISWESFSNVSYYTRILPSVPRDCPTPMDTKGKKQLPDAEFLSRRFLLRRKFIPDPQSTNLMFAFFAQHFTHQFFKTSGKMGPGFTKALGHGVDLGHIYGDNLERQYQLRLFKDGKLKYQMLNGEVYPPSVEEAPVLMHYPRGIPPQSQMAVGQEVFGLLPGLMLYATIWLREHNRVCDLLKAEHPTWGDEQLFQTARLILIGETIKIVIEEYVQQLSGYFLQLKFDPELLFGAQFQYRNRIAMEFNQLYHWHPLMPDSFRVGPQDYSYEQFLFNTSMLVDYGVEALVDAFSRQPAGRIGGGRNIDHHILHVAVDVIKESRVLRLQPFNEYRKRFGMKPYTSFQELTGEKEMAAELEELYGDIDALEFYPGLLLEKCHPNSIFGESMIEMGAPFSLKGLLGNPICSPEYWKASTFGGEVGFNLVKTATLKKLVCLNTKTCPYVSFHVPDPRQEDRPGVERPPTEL

RAW264.7 [5] = assay: Cytotoxicity against mouse RAW264.7 cells assessed as reduction in cell viability at 5 uM incubated for 24 hrs by MTT assay; type: toxicity, cell-based; settings: raw264.7, 24 h
RAW264.7 [6] = assay: Anti-inflammatory activity in LPS-induced mouse RAW264.7 cells assessed as reduction in PGE2 level preincubated with compound for 1 hrs followed by LPS stimulation and measured after 24 hrs by ELISA; type: functional, cell-based; settings: time 25.0 hrs
Rattus norvegicus [7] = assay: Neuroprotective activity against middle cerebral artery occlusion induced ischemia stroke Sprague-Dawley rat model assessed as cerebral infarction area at 10 mg/kg, ip measured after 24 hrs by TTC staining based imaging analysis (reference value: 20.08 +/- 5.70); type: functional
Rattus norvegicus [8] = assay: Neuroprotective activity against middle cerebral artery occlusion induced ischemia stroke Sprague-Dawley rat model assessed as reduction in glycocalyx degradation by measuring decrease in serum syndecan-1 level at 20 mg/kg, ip measured after 24 hrs by ELISA; type: functional, organism-based
PC-12 [9] = assay: Neuroprotective activity against SNP-induced cell damage in rat PC-12 cells at 2.5 to 100 uM pretreated with compound for 2 hrs followed by SNP addition and measured after 24 hrs by MTT assay; type: functional, cell-based; settings: dose 2.5-100 µM, time 26.0 hrs

**Q.** With `Cc1ccc(-c2nc(-c3ccc(C)cc3O)n(-c3ccc(S(N)(=O)=O)cc3)n2)c(O)c1` as the compound, how does the Activity (PC-12 [1]) read?
**A.** Active

**Q.** With `Oc1cc(C(F)(F)F)ccc1-c1nc(-c2ccccc2O)n(-c2ccccc2)n1` as the compound, how does the Activity (PC-12 [1]) read?
**A.** Active

**Q.** `COc1ccc(-c2nc(-c3ccccc3O)n(-c3ccc(S(N)(=O)=O)cc3)n2)cc1` was tested. Which Activity (PC-12 [1]) did it give?
**A.** Active

**Q.** `CS(=O)(=O)c1ccc(-n2nc(-c3ccc(C(F)(F)F)cc3O)nc2-c2ccccc2O)cc1` was tested. Which Activity (PC-12 [1]) did it give?
**A.** Active

**Q.** What about the Activity (RAW264.7 [2]) of the same compound?
**A.** Active

**Q.** And the Activity (PC-12 [3])?
**A.** Dose-Dependent Effect

**Q.** What about the IC50 [4] of the same compound?
**A.** 82.1 µM

**Q.** What about the Activity (RAW264.7 [5]) of the same compound?
**A.** Non-Toxic

**Q.** And the Activity (RAW264.7 [6])?
**A.** Active

**Q.** What does the source list for `Cc1ccc(-c2nc(-c3ccccc3O)n(-c3ccc(S(N)(=O)=O)cc3)n2)c(O)c1`?
**A.** Activity (PC-12 [1]): Active; Activity (RAW264.7 [2]): Active; Activity (PC-12 [3]): Dose-Dependent Effect; IC50 [4]: 42.3 µM; Activity (RAW264.7 [5]): Non-Toxic; Activity (RAW264.7 [6]): Active

**Q.** `NS(=O)(=O)c1ccc(-n2nc(-c3ccc(F)cc3O)nc2-c2ccc(F)cc2O)cc1` was tested. Which Activity (PC-12 [1]) did it give?
**A.** Active

**Q.** What about the Activity (RAW264.7 [2]) of the same compound?
**A.** Active

**Q.** And the Activity (PC-12 [3])?
**A.** Dose-Dependent Effect

**Q.** And the IC50 [4]?
**A.** 26.3 µM

**Q.** What about the Activity (RAW264.7 [5]) of the same compound?
**A.** Non-Toxic

**Q.** What about the Activity (RAW264.7 [6]) of the same compound?
**A.** Active

**Q.** Which Activity (PC-12 [1]) does the source give for `NS(=O)(=O)c1ccc(-n2nc(-c3ccccc3O)nc2-c2ccccc2O)cc1` here?
**A.** Active

**Q.** What about the Activity (RAW264.7 [2]) of the same compound?
**A.** Active

**Q.** What about the Activity (PC-12 [3]) of the same compound?
**A.** Dose-Dependent Effect

**Q.** What about the IC50 [4] of the same compound?
**A.** 39.2 µM

**Q.** What about the Activity (RAW264.7 [5]) of the same compound?
**A.** Non-Toxic

**Q.** What about the Activity (RAW264.7 [6]) of the same compound?
**A.** Active

**Q.** Which Activity (PC-12 [1]) does the source give for `CC(=O)Oc1ccccc1-c1nc(-c2ccccc2OC(C)=O)n(-c2ccccc2)n1` here?
**A.** Active

**Q.** For `CC1=NN(c2ccccc2)C(=O)C1` [EDARAVONE], which Activity (Rattus norvegicus [7]) is on record?
**A.** 15.41

**Q.** What about the Activity (Rattus norvegicus [8]) of the same compound?
**A.** Active

**Q.** With `COc1ccc(-c2nc(-c3ccccc3O)n(-c3ccc(S(N)(=O)=O)cc3)n2)c(O)c1` as the compound, how does the Activity (PC-12 [1]) read?
**A.** Active

**Q.** What about the IC50 [4] of the same compound?
**A.** 45.5 µM

**Q.** Which Activity (PC-12 [1]) does the source give for `COc1cccc(-c2nc(-c3ccccc3O)n(-c3ccc(S(N)(=O)=O)cc3)n2)c1O` here?
**A.** Active

**Q.** And the IC50 [4]?
**A.** 20 µM

**Q.** With `NS(=O)(=O)c1ccc(-n2nc(-c3ccc(C(F)(F)F)cc3)nc2-c2ccccc2O)cc1` as the compound, how does the Activity (PC-12 [1]) read?
**A.** Active

**Q.** What about the Activity (RAW264.7 [2]) of the same compound?
**A.** Active

**Q.** And the IC50 [4]?
**A.** 43.4 µM

**Q.** And the Activity (RAW264.7 [5])?
**A.** Non-Toxic

**Q.** What about the Activity (RAW264.7 [6]) of the same compound?
**A.** Active

**Q.** For `COc1ccc(-c2nc(-c3ccc(OC)cc3O)n(-c3ccc(S(N)(=O)=O)cc3)n2)c(O)c1`, which Activity (PC-12 [1]) is on record?
**A.** Active

**Q.** How did the Activity (PC-12 [1]) turn out when `NS(=O)(=O)c1ccc(-n2nc(-c3ccc(Cl)cc3O)nc2-c2ccccc2O)cc1` was run?
**A.** Active

**Q.** What about the IC50 [4] of the same compound?
**A.** 25.6 µM

**Q.** What does the source list for `NS(=O)(=O)c1ccc(-n2nc(-c3ccccc3)nc2-c2ccccc2O)cc1`?
**A.** Activity (PC-12 [1]): Active; Activity (RAW264.7 [2]): Active; IC50 [4]: 32.1 µM; Activity (RAW264.7 [5]): Non-Toxic; Activity (RAW264.7 [6]): Active

**Q.** With `COc1ccc(-c2nc(-c3ccccc3OC(C)=O)n(-c3ccccc3)n2)c(OC(C)=O)c1` as the compound, how does the Activity (PC-12 [1]) read?
**A.** Active

**Q.** `NS(=O)(=O)c1ccc(-n2nc(-c3ccc(Cl)cc3O)nc2-c2ccc(Cl)cc2O)cc1` was tested. Which Activity (PC-12 [1]) did it give?
**A.** Active

**Q.** How did the Activity (PC-12 [1]) turn out when `COc1ccc(-c2nc(-c3ccccc3O)n(-c3ccccc3)n2)c(O)c1` was run?
**A.** Active

**Q.** How did the Activity (RAW264.7 [2]) turn out when `Cc1ccc(-c2cc(C(F)(F)F)nn2-c2ccc(S(N)(=O)=O)cc2)cc1` [CELECOXIB] was run?
**A.** Active

**Q.** What about the Activity (PC-12 [9]) of the same compound?
**A.** inactive

**Q.** And the Activity (RAW264.7 [5])?
**A.** Non-Toxic

**Q.** And the Activity (RAW264.7 [6])?
**A.** Active

**Q.** Which Activity (PC-12 [1]) does the source give for `Oc1ccccc1-c1nc(-c2ccccc2O)n(-c2ccccc2)n1` here?
**A.** Active

**Q.** For `NS(=O)(=O)c1ccc(-n2nc(-c3ccc(C(F)(F)F)cc3O)nc2-c2ccc(C(F)(F)F)cc2O)cc1`, which Activity (PC-12 [1]) is on record?
**A.** Active

**Q.** `CS(=O)(=O)c1ccc(-n2nc(-c3ccccc3O)nc2-c2ccccc2O)cc1` was tested. Which Activity (PC-12 [1]) did it give?
**A.** Active

**Q.** With `COc1ccc(O)c(-c2nc(-c3ccccc3O)n(-c3ccc(S(N)(=O)=O)cc3)n2)c1` as the compound, how does the Activity (PC-12 [1]) read?
**A.** Active

**Q.** And the IC50 [4]?
**A.** 12.8 µM

**Q.** How did the Activity (PC-12 [1]) turn out when `COc1ccc(-c2nc(-c3ccccc3O)n(-c3ccc(S(C)(=O)=O)cc3)n2)c(O)c1` was run?
**A.** Active

**Q.** For `NS(=O)(=O)c1ccc(-n2nc(-c3ccc(F)cc3O)nc2-c2ccccc2O)cc1`, which Activity (PC-12 [1]) is on record?
**A.** Active

**Q.** Which Activity (PC-12 [1]) does the source give for `CC(=O)Oc1cc(C(F)(F)F)ccc1-c1nc(-c2ccccc2OC(C)=O)n(-c2ccccc2)n1` here?
**A.** Active

**Q.** Which Activity (PC-12 [1]) does the source give for `NS(=O)(=O)c1ccc(-n2nc(-c3ccc(F)cc3)nc2-c2ccccc2O)cc1` here?
**A.** Active

**Q.** What about the Activity (RAW264.7 [2]) of the same compound?
**A.** Active

**Q.** What about the IC50 [4] of the same compound?
**A.** 41.6 µM

**Q.** And the Activity (RAW264.7 [5])?
**A.** Non-Toxic

**Q.** And the Activity (RAW264.7 [6])?
**A.** Active

**Q.** For `NS(=O)(=O)c1ccc(-n2nc(-c3ccc([N+](=O)[O-])cc3)nc2-c2ccccc2O)cc1`, which Activity (PC-12 [1]) is on record?
**A.** Active

**Q.** `NS(=O)(=O)c1ccc(-n2nc(-c3ccc([N+](=O)[O-])cc3O)nc2-c2ccccc2O)cc1` was tested. Which Activity (PC-12 [1]) did it give?
**A.** Active
